Values quoted from earlier work as cited in patent US20110230564A1, “ANT4 INHIBITOR COMPOUNDS AND METHODS OF USE THEREOF” (priority 2008, published 2011).

Test system: sperm
Conditions: 50 μM

## CO[C@H](C/C=C\C=C\CC/C=C/C[C@H](C)/C=C/C(=C\C(=O)O)CC(=O)O)/C(C)=C\C=C(/C)C(=O)O [Bongkrekic acid]
  sperm motility: almost completely immotile
